Source: patent US6939879B2, “Use of R (+)-α-(2,3-dimethoxyphenyl)-1-[2-(4-fluorophenyl)ethyl]-4-piperidinemethanol for the treatment of substance induced insomnia” (Aventis Pharmaceuticals Inc., priority 1998, dated 2005)

Columns and labels:
[1] = tested on: anaesthetized newborn Sprague Dawley rats; experiment: Depression of genioglossal EMG induced by L-Tryptophan and Pargyline; type: in vivo, rat; details: for prevention of depression of the amplitude of GG inspiratory discharges by L-Trp+Prg: five newborn rats
Method: (§1) Intraperitoneal application of L-Tryptophan (10 mg/kg) and Pargyline (50 mg/kg) to anaesthetized newborn rats depressed the amplitude of the inspiratory discharges of the genioglossal muscle and induced obstructive apneas (OA).
(§2) Experiments were carried out on newborn Sprague Dawley rats from Iffa Credo breeding center. The animals were anaesthetized by intraperitoneal injection of low doses of sodium pentobarbitone (7-10 mg/kg), kept lying (dorsal cubitus) on a warming blanket and were spontaneously ventilating.
(§3) The EMG activity of the genioglossal muscles and the diaphragm were recorded with fine insulated wires (bipolar recordings) inserted within the muscles, filtered (100-3,000 Hz), amplified (×5-10,000) and integrated (time constant 50 ms). The rib cage movements were recorded via a captor gently touching the lower ribs and/or the abdominal wall. The air flow changes resulting from the respiratory chest movements were recorded via a facial mask and a highly sensitive pressure recorder.
Then, the animal received an intraperitoneal injection of L-Tryptophan plus Pargyline (“L-Trp+Parg”) 10 mg/kg and 50 mg/kg, respectively, and the changes in EMG amplitudes were checked every 10 minutes and were expressed as % of control values.

[2] = tested on: anaesthetized newborn Sprague Dawley rats; experiment: Occurrence of obstructive apnea induced by L-Tryptophan and Pargyline injection; type: in vivo, rat
Method: as §1, §2, §3

healthy subjects [3] = experiment: Single oral dose in healthy subjects, sedation (Example 4A); type: in vivo, human
Method: Forty percent of the subjects receiving the 20 mg dose (2 out of 5) and sixty percent of the subjects receiving the 10 mg dose (3 out of 5) experienced mild to moderate sedation. […]

healthy subjects [4] = experiment: Drowsiness in healthy subjects, 3-72 mg doses (Example 4D); type: in vivo, human
Method: D) In healthy subjects, the COMPOUND was administered in 3 mg (n=4), 9 mg (n=4), 18 mg (n=4), 36 mg (n=4) and 72 mg (n=4) doses along with the placebo (n=5) wherein “n” is the number of subjects.

[5] = tested on: patients diagnosed with schizophrenia; experiment: Insomnia and somnolence reported by patients with schizophrenia, twice daily oral dosing (Example 4B); type: in vivo, human
Method: Forty percent of the subjects receiving the 20 mg dose (2 out of 5) and sixty percent of the subjects receiving the 10 mg dose (3 out of 5) experienced mild to moderate sedation. […] The following data were reported.

healthy subjects [6] = experiment: Drowsiness in healthy subjects after oral doses (Example 4C); type: in vivo, human; details: for Drowsiness, % of subjects / Drowsiness, n of subjects: n = 4; for rating of the drowsiness: oral
Source text: The following data were reported.

[7] = pre-treatment 0.1 mg/kg intraperitoneal, ten newborn rats
[8] = pre-treatment 0.1 mg/kg, L-Trp+Parg 10 min later
[9] = pre-treatment 1 mg/kg, ten rats

## Cn1c(=O)c2[nH]cnc2n(C)c1=O [theophylline, reference compound]
[1]; pre-treatment 10 mg/kg
  prevention of depression of the amplitude of GG inspiratory discharges by L-Trp+Prg: not prevented
[1]; pre-treatment 30 mg/kg
  prevention of depression of the amplitude of GG inspiratory discharges by L-Trp+Prg: not prevented
[2]; pre-treatment 10 mg/kg
  prevention of induction of OAs after L-Trp+Prg injection: not prevented
[2]; pre-treatment 30 mg/kg
  prevention of induction of OAs after L-Trp+Prg injection: not prevented

## COc1cccc([C@H](O)C2CCN(CCc3ccc(F)cc3)CC2)c1OC [COMPOUND, R-(+)-α-(2,3-Dimethoxyphenyl)-1-[2-(4-fluorophenyl)ethyl]-4-piperidinemethanol]
Healthy subjects [3]; single 10 mg oral dose
  subjects who experienced mild to moderate sedation: 3 out of 5
Healthy subjects [3]; single 20 mg oral dose
  subjects who experienced mild to moderate sedation: 2 out of 5
[1]; [7]
  depression of the mean GG discharge after L-Trp+Parg injection: 30-50%
  prevention of depression of genioglossal (GG) discharge induced by L-Trp+Parg: did not prevent
[1]; pre-treatment 1 mg/kg intraperitoneal, ten newborn rats
  prevention of depression of genioglossal (GG) discharge induced by L-Trp+Parg: efficient in preventing the GG depression
[1]; pre-treatment 3 mg/kg intraperitoneal, ten newborn rats
  prevention of depression of genioglossal (GG) discharge induced by L-Trp+Parg: confirmed the efficiency
Healthy subjects [4]; 3 mg, 9 mg, 18 mg, 36 mg doses (n=4 each)
  drowsiness reported: Only the group receiving the 72 mg dose reported drowsiness
Healthy subjects [4]; 72 mg dose (n=4)
  number of subjects that reported drowsiness: 3
[5]; 10 mg (5 mg twice daily) oral
  Insomnia, % of subjects: N = 0; 0%
  Insomnia, N (number of subjects that reported the effect): N = 0; 0%
  Somnolence, % of subjects: 20%
  Somnolence, N (number of subjects that reported the effect): 3
[5]; 20 mg (10 mg twice daily) oral
  Insomnia, % of subjects: 21.4%
  Insomnia, N (number of subjects that reported the effect): N = 3:
  Somnolence, % of subjects: 15.4%
  Somnolence, N (number of subjects that reported the effect): N = 1;
[5]; 40 mg (20 mg twice daily) oral
  Insomnia, % of subjects: 23.1%
  Insomnia, N (number of subjects that reported the effect): N = 3;
  Somnolence, % of subjects: 15.4%
  Somnolence, N (number of subjects that reported the effect): N = 2;
[2]; [8]
  animals that eventually died of respiratory distress: 4 of the 10
  newborn rats in which L-Trp+Parg injection induced OAs: 9 of 10
[2]; pre-treatment 1 mg/kg
  newborn rats that did not present short lasting OAs at all: Five out of ten
  newborn rats which displayed OAs: 5 of 10
[2]; pre-treatment 1 mg/kg, among the 5 of 10 with OAs
  animals with infrequent OAs (less than 5 short lasting OAs in 60 minutes): 2
[2]; pre-treatment 1 mg/kg, between 20-40 min after the injection, significantly less than in the 0.1 mg/kg sample
  peak frequency of occurrence of short lasting OAs (mean curve): 4 OAs per 10 minute period
[2]; [9]
  newborn rats with long lasting OAs: one
  survival to L-Trp+Parg injection: all animals survived
[2]; pre-treatment 3 mg/kg
  treated rats with a total of less than 3 short lasting OAs: 3 of 10
  treated rats with frequent short lasting OAs: 2 of 10
  treated rats with no short lasting OAs: 5 of 10
[2]; pre-treatment 3 mg/kg, ten rats
  survival to L-Trp+Parg injection: all survived
Healthy subjects [6]; 9 mg oral
  Drowsiness, % of subjects: 50%
  Drowsiness, n of subjects: n = 2
Healthy subjects [6]; 18 mg oral
  Drowsiness, % of subjects: 100%
  Drowsiness, n of subjects: n = 4
Healthy subjects [6]; 36 mg oral
  Drowsiness, % of subjects: 100%
  Drowsiness, n of subjects: n = 4
Healthy subjects [6]; 72 mg and above
  rating of the drowsiness: moderate to severe
Healthy subjects [6]; 72 mg oral
  Drowsiness, % of subjects: 75%
  Drowsiness, n of subjects: n = 3
Healthy subjects [6]; 108 mg oral
  Drowsiness, % of subjects: 100%
  Drowsiness, n of subjects: n = 4
Healthy subjects [6]; 138 mg oral
  Drowsiness, % of subjects: 100%
  Drowsiness, n of subjects: n = 4
Healthy subjects [6]; doses below 72 mg
  rating of the drowsiness: mild or moderate
